Measured values taken from US11419921B2, “Methods of treating neurological disorders” (EnClear Therapies, Inc., priority 2018, dated 2022).

What was measured:
(GR)10 [1] = assay: (GR)10 digestion with immobilized proteases in human cerebrospinal fluid (CSF); format: biochemical; conditions: immobilized enzyme
Description: Protease solutions were prepared at 2 mg/mL in sterile PBS with calcium, magnesium and 200 μL ([…]) were applied to 100 μL of pre-washed NHS-activated agarose resin in 0.8 mL centrifuge columns. Reactions were left 1.5 hour at room temperature with end-to-end mixing, after which resins were washed with 12 resin volumes of PBS. Unreacted sites were blocked with 500 μL of 1M ethanolamine for 15 minutes at room temperature and resins were further washed with 24 resin volumes. Resins were stored at 4 degrees in 500 μL of PBS containing 0.05% sodium azide as preservative.
200 μM of (GR)10 were diluted in human cerebrospinal fluid (CSF) and 400 μL were applied to each immobilized proteases. The reaction was incubated 5 minutes at room temperature with end-to-end mixing. Columns were spun down 1 minute at 1,000 Xg to recover digested GR dipeptides. Columns were washed with 12 resin volumes of PBS. The procedure was repeated with 60 minutes digestion time. 100 μL of each samples were transferred to a clean tube, flash-frozen and subsequently used for LC/MS quantification of GR repeats of different lengths. The remaining 300 μL of each samples were flash-frozen and used to assess neuron toxicity.
(GR)10 was digested with exemplary immobilized enzymes as described above in the subsection titled “(GR)10 digestion with immobilized proteases in CSF” of Example 3. Clostripain experiments were conducted with and without DTT activation (no DTT during digestion). The results obtained after 5 and 60 minutes of reaction time are presented in Table 25 and shown in FIG. 5 (commercial and in-house immobilized trypsin), FIG. 6 (immobilized elastase, FIG. 7A (immobilized clostripain without DTT) and FIG. 7 (immobilized clostripain with 2.5 mM DTT).

(GR)10 [2] = assay: Cleavage of (GR)10 by enzymes in solution (PBS with CaCl2 and MgCl2), LC/MS of GR repeats; format: biochemical; conditions: for (GR)1 concentration / (GR)2 concentration / (GR)4 concentration / (GR)6 concentration / (GR)8 concentration / (GR)10 concentration: (GR)10 50 μM; for (GR)1 / (GR)2 / (GR)3 / (GR)4 / (GR)5 / (GR)6 / (GR)8 / (GR)10: PBS, normalized
Description: • (GR)10 dipeptide (also (GR)8, (GR)6, (GR)4, (GR)2) were synthetized by solid-phase synthesis by CanPeptide; All peptides are uncapped and supplied lyophilized with TFA as counter ions. Purity was always above 95%. • Buffer: PBS buffer containing CaCl2 and MgCl2. • Stock solution of enzyme (e.g., 10 mg/mL) (prepared per manufacturer instructions) in PBS. Activators added as necessary. • Working solution of protein of the desired concentration (e.g., 100 μg/mL) prepared immediately before use by diluting the stock solution (e.g., 5 μL of 10 mg/mL stock solution) in PBS buffer (e.g., in 495 μL of PBS). Exemplary Procedure Using 50 μM Concentrations of (GR)10
25 μL of a 100 μM solution of (GR)10 was added to each well of a 96-well plate. 25 μL of a solution of enzyme (two times the desired final enzyme concentration) was added, and the plates were incubated at room temperature. At the specified time points (5 minutes, 10 minutes, 30 minutes, 60 minutes, and 180 minutes) 2.5 μL of a 10% TFA solution were added to stop the reaction. For the time 0 min well, the TFA was added to the well before addition of the enzyme. After last time point, all samples were further diluted with 150 μL of dilution solution. The quenched reaction mixtures were analyzed by LC/MS to determine the concentration of GR repeats of different lengths.
The chromatography and mass spectrometry conditions utilized are shown in Table 2 and Table 3, respectively.

(GR)1 concentration ((GR)10 [2]; enzyme 2.5 μg/mL, 0 min): BLQ
(GR)2 concentration ((GR)10 [2]; enzyme 2.5 μg/mL, 0 min): BLQ
(GR)4 concentration ((GR)10 [2]; enzyme 2.5 μg/mL, 0 min): BLQ
(GR)6 concentration ((GR)10 [2]; enzyme 2.5 μg/mL, 0 min): BLQ
(GR)8 concentration ((GR)10 [2]; enzyme 2.5 μg/mL, 0 min): BLQ
(GR)10 concentration ((GR)10 [2]; enzyme 2.5 μg/mL, 0 min): 53.8 µM
(GR)1 concentration ((GR)10 [2]; enzyme 2.5 μg/mL, 5 min): 0.2 µM
(GR)2 concentration ((GR)10 [2]; enzyme 2.5 μg/mL, 5 min): 0.2 µM
(GR)4 concentration ((GR)10 [2]; enzyme 2.5 μg/mL, 5 min): BLQ
(GR)6 concentration ((GR)10 [2]; enzyme 2.5 μg/mL, 5 min): BLQ
(GR)8 concentration ((GR)10 [2]; enzyme 2.5 μg/mL, 5 min): 0.3 µM
(GR)10 concentration ((GR)10 [2]; enzyme 2.5 μg/mL, 5 min): 52.6 µM
(GR)1 concentration ((GR)10 [2]; enzyme 2.5 μg/mL, 10 min): 0.3 µM
(GR)2 concentration ((GR)10 [2]; enzyme 2.5 μg/mL, 10 min): 0.2 µM
(GR)4 concentration ((GR)10 [2]; enzyme 2.5 μg/mL, 10 min): 0.2 µM
(GR)6 concentration ((GR)10 [2]; enzyme 2.5 μg/mL, 10 min): BLQ
(GR)8 concentration ((GR)10 [2]; enzyme 2.5 μg/mL, 10 min): 0.6 µM
(GR)10 concentration ((GR)10 [2]; enzyme 2.5 μg/mL, 10 min): 52.5 µM
(GR)1 concentration ((GR)10 [2]; enzyme 2.5 μg/mL, 30 min): 1.3 µM
(GR)2 concentration ((GR)10 [2]; enzyme 2.5 μg/mL, 30 min): 0.8 µM
(GR)4 concentration ((GR)10 [2]; enzyme 2.5 μg/mL, 30 min): 0.7 µM
(GR)6 concentration ((GR)10 [2]; enzyme 2.5 μg/mL, 30 min): 0.7 µM
(GR)8 concentration ((GR)10 [2]; enzyme 2.5 μg/mL, 30 min): 0.6 µM
(GR)10 concentration ((GR)10 [2]; enzyme 2.5 μg/mL, 30 min): 43.6 µM
(GR)1 concentration ((GR)10 [2]; enzyme 2.5 μg/mL, 60 min): 2.3 µM
(GR)2 concentration ((GR)10 [2]; enzyme 2.5 μg/mL, 60 min): 1.4 µM
(GR)4 concentration ((GR)10 [2]; enzyme 2.5 μg/mL, 60 min): 1.4 µM
(GR)6 concentration ((GR)10 [2]; enzyme 2.5 μg/mL, 60 min): 1.0 µM
(GR)8 concentration ((GR)10 [2]; enzyme 2.5 μg/mL, 60 min): 1.6 µM
(GR)10 concentration ((GR)10 [2]; enzyme 2.5 μg/mL, 60 min): 35.3 µM
(GR)1 concentration ((GR)10 [2]; enzyme 2.5 μg/mL, 120 min): 4.3 µM
(GR)2 concentration ((GR)10 [2]; enzyme 2.5 μg/mL, 120 min): 2.1 µM
(GR)4 concentration ((GR)10 [2]; enzyme 2.5 μg/mL, 120 min): 2.3 µM
(GR)6 concentration ((GR)10 [2]; enzyme 2.5 μg/mL, 120 min): 1.5 µM
(GR)8 concentration ((GR)10 [2]; enzyme 2.5 μg/mL, 120 min): 2.5 µM
(GR)10 concentration ((GR)10 [2]; enzyme 2.5 μg/mL, 120 min): 24.9 µM
(GR)1 concentration ((GR)10 [2]; enzyme 10 μg/mL, 0 min): BLQ
(GR)2 concentration ((GR)10 [2]; enzyme 10 μg/mL, 0 min): BLQ
(GR)4 concentration ((GR)10 [2]; enzyme 10 μg/mL, 0 min): BLQ
(GR)6 concentration ((GR)10 [2]; enzyme 10 μg/mL, 0 min): BLQ
(GR)8 concentration ((GR)10 [2]; enzyme 10 μg/mL, 0 min): BLQ
(GR)10 concentration ((GR)10 [2]; enzyme 10 μg/mL, 0 min): 41.6 µM
(GR)1 concentration ((GR)10 [2]; enzyme 10 μg/mL, 5 min): 0.8 µM
(GR)2 concentration ((GR)10 [2]; enzyme 10 μg/mL, 5 min): 0.5 µM
(GR)4 concentration ((GR)10 [2]; enzyme 10 μg/mL, 5 min): 0.5 µM
(GR)6 concentration ((GR)10 [2]; enzyme 10 μg/mL, 5 min): 0.4 µM
(GR)8 concentration ((GR)10 [2]; enzyme 10 μg/mL, 5 min): 0.9 µM
(GR)10 concentration ((GR)10 [2]; enzyme 10 μg/mL, 5 min): 50.5 µM
(GR)1 concentration ((GR)10 [2]; enzyme 10 μg/mL, 10 min): 1.4 µM
(GR)2 concentration ((GR)10 [2]; enzyme 10 μg/mL, 10 min): 0.8 µM
(GR)4 concentration ((GR)10 [2]; enzyme 10 μg/mL, 10 min): 0.7 µM
(GR)6 concentration ((GR)10 [2]; enzyme 10 μg/mL, 10 min): 0.8 µM
(GR)8 concentration ((GR)10 [2]; enzyme 10 μg/mL, 10 min): 0.9 µM
(GR)10 concentration ((GR)10 [2]; enzyme 10 μg/mL, 10 min): 37.8 µM
(GR)1 concentration ((GR)10 [2]; enzyme 10 μg/mL, 30 min): 5.1 µM
(GR)2 concentration ((GR)10 [2]; enzyme 10 μg/mL, 30 min): 2.5 µM
(GR)4 concentration ((GR)10 [2]; enzyme 10 μg/mL, 30 min): 2.2 µM
(GR)6 concentration ((GR)10 [2]; enzyme 10 μg/mL, 30 min): 1.6 µM
(GR)8 concentration ((GR)10 [2]; enzyme 10 μg/mL, 30 min): 2.8 µM
(GR)10 concentration ((GR)10 [2]; enzyme 10 μg/mL, 30 min): 21.1 µM
(GR)1 concentration ((GR)10 [2]; enzyme 10 μg/mL, 60 min): 8.3 µM
(GR)2 concentration ((GR)10 [2]; enzyme 10 μg/mL, 60 min): 3.7 µM
(GR)4 concentration ((GR)10 [2]; enzyme 10 μg/mL, 60 min): 2.8 µM
(GR)6 concentration ((GR)10 [2]; enzyme 10 μg/mL, 60 min): 2.2 µM
(GR)8 concentration ((GR)10 [2]; enzyme 10 μg/mL, 60 min): 3.3 µM
(GR)10 concentration ((GR)10 [2]; enzyme 10 μg/mL, 60 min): 12.2 µM
(GR)1 concentration ((GR)10 [2]; enzyme 10 μg/mL, 120 min): 15.1 µM
(GR)2 concentration ((GR)10 [2]; enzyme 10 μg/mL, 120 min): 6.3 µM
(GR)4 concentration ((GR)10 [2]; enzyme 10 μg/mL, 120 min): 3.2 µM
(GR)6 concentration ((GR)10 [2]; enzyme 10 μg/mL, 120 min): 2.0 µM
(GR)8 concentration ((GR)10 [2]; enzyme 10 μg/mL, 120 min): 1.3 µM
(GR)10 concentration ((GR)10 [2]; enzyme 10 μg/mL, 120 min): 2.4 µM
(GR)1 ((GR)10 [2]; in solution - 5 min reaction): 1.4 µM
(GR)2 ((GR)10 [2]; in solution - 5 min reaction): 2.9 µM
(GR)3 ((GR)10 [2]; in solution - 5 min reaction): 2.1 µM
(GR)4 ((GR)10 [2]; in solution - 5 min reaction): 3.1 µM
(GR)5 ((GR)10 [2]; in solution - 5 min reaction): 2.3 µM
(GR)6 ((GR)10 [2]; in solution - 5 min reaction): 4.4 µM
(GR)8 ((GR)10 [2]; in solution - 5 min reaction): 6.8 µM
(GR)10 ((GR)10 [2]; in solution - 5 min reaction): 213.3 µM
(GR)1 ((GR)10 [2]; in solution - 60 min reaction): 5.4 µM
(GR)2 ((GR)10 [2]; in solution - 60 min reaction): 12.8 µM
(GR)3 ((GR)10 [2]; in solution - 60 min reaction): 8.5 µM
(GR)4 ((GR)10 [2]; in solution - 60 min reaction): 8.8 µM
(GR)5 ((GR)10 [2]; in solution - 60 min reaction): 6.0 µM
(GR)6 ((GR)10 [2]; in solution - 60 min reaction): 9 µM
(GR)8 ((GR)10 [2]; in solution - 60 min reaction): 12.8 µM
(GR)10 ((GR)10 [2]; in solution - 60 min reaction): 21.6 µM
Substance: Elastase: protease that cleaves at the carboxyl side of small hydrophobic amino acids; in Table 22 also immobilized on agarose resin
(GR)1 (normalized uM) ((GR)10 [1]; 5 min reaction): 57.4 µM
(GR)2 (normalized uM) ((GR)10 [1]; 5 min reaction): 29.4 µM
(GR)3 (normalized uM) ((GR)10 [1]; 5 min reaction): 20.7 µM
(GR)4 (normalized uM) ((GR)10 [1]; 5 min reaction): 22 µM
(GR)5 (normalized uM) ((GR)10 [1]; 5 min reaction): 10.5 µM
(GR)6 (normalized uM) ((GR)10 [1]; 5 min reaction): 0.0 µM
(GR)8 (normalized uM) ((GR)10 [1]; 5 min reaction): 0.0 µM
(GR)10 (normalized uM) ((GR)10 [1]; 5 min reaction): 0.0 µM
(GR)1 (normalized uM) ((GR)10 [1]; 60 min reaction): 200.3 µM
(GR)2 (normalized uM) ((GR)10 [1]; 60 min reaction): 6 µM
(GR)3 (normalized uM) ((GR)10 [1]; 60 min reaction): 0.0 µM
(GR)4 (normalized uM) ((GR)10 [1]; 60 min reaction): 0.0 µM
(GR)5 (normalized uM) ((GR)10 [1]; 60 min reaction): 0.0 µM
(GR)6 (normalized uM) ((GR)10 [1]; 60 min reaction): 0.0 µM
(GR)8 (normalized uM) ((GR)10 [1]; 60 min reaction): 0.0 µM
(GR)10 (normalized uM) ((GR)10 [1]; 60 min reaction): 0.0 µM
